Experiment: xn = mol fraction of the nth substance listed

Nc1ccccc1 + CCCCCCO
viscosity [mPa·s], 100 kPa
Details | 293.15 K | 303.15 K | 313.15 K | 323.15 K
x1 = 0.0816 | 4.79 | 3.54 | 2.65 | 2.05
x1 = 0.1448 | – | 3.327 | 2.396 | –
x1 = 0.1533 | 4.4 | 3.29 | 2.48 | 1.92
x1 = 0.2422 | 4.1 | 3.09 | 2.33 | 1.82
x1 = 0.2758 | – | 2.857 | 1.969 | –
x1 = 0.3514 | 3.81 | 2.87 | 2.21 | 1.73
x1 = 0.4176 | – | 2.453 | 1.627 | –
x1 = 0.4449 | 3.64 | 2.74 | 2.12 | 1.66
x1 = 0.5246 | – | 2.213 | 1.457 | –
x1 = 0.5571 | 3.55 | 2.61 | 2.04 | 1.61
x1 = 0.6037 | – | 2.119 | 1.397 | –
x1 = 0.6483 | 3.52 | 2.59 | 2.03 | 1.61
x1 = 0.7131 | – | 2.101 | 1.432 | –
x1 = 0.7361 | 3.55 | 2.61 | 2.05 | 1.63
x1 = 0.8283 | – | 2.283 | 1.639 | –
x1 = 0.8542 | 3.73 | 2.72 | 2.16 | 1.71
x1 = 0.932 | – | 2.648 | 1.979 | –
x1 = 0.9356 | 4.03 | 2.93 | 2.32 | 1.84

Nc1ccccc1 + CCCCCO
viscosity [mPa·s]
Details | 293.15 K | 303.15 K | 313.15 K | 323.15 K
100 kPa, x1 = 0.0802 | 3.66 | 2.77 | 2.11 | 1.66
100 kPa, x1 = 0.1304 | – | 2.664 | 2.018 | –
100 kPa, x1 = 0.1536 | 3.42 | 2.6 | 2.01 | 1.57
100 kPa, x1 = 0.2363 | 3.26 | 2.48 | 1.93 | 1.52
100 kPa, x1 = 0.2524 | – | 2.309 | 1.697 | –
100 kPa, x1 = 0.3418 | 3.15 | 2.4 | 1.86 | 1.48
100 kPa, x1 = 0.3885 | – | 1.947 | 1.361 | –
100 kPa, x1 = 0.4371 | 3.11 | 2.34 | 1.84 | 1.47
100 kPa, x1 = 0.4944 | – | 1.724 | 1.147 | –
100 kPa, x1 = 0.5521 | 3.12 | 2.32 | 1.84 | 1.47
100 kPa, x1 = 0.5745 | – | 1.627 | 1.051 | –
100 kPa, x1 = 0.6518 | 3.21 | 2.37 | 1.88 | 1.5
100 kPa, x1 = 0.6878 | – | 1.619 | 1.031 | –
100 kPa, x1 = 0.7411 | 3.35 | 2.47 | 1.96 | 1.56
100 kPa, x1 = 0.8105 | – | 1.865 | 1.245 | –
100 kPa, x1 = 0.8487 | 3.63 | 2.66 | 2.12 | 1.67
100 kPa, x1 = 0.924 | – | 2.42 | 1.75 | –
100 kPa, x1 = 0.9425 | 4.04 | 2.95 | 2.32 | 1.83
101.33 kPa, x2 = 0.1207 | 3.714 | – | – | –
101.33 kPa, x2 = 0.2883 | 3.273 | – | – | –
101.33 kPa, x2 = 0.3221 | 3.227 | – | – | –
101.33 kPa, x2 = 0.3789 | 3.161 | – | – | –
101.33 kPa, x2 = 0.4074 | 3.138 | – | – | –
101.33 kPa, x2 = 0.5661 | 3.087 | – | – | –
101.33 kPa, x2 = 0.7695 | 3.258 | – | – | –
101.33 kPa, x2 = 0.8055 | 3.326 | – | – | –
101.33 kPa, x2 = 0.8557 | 3.444 | – | – | –
101.33 kPa, x2 = 0.9099 | 3.605 | – | – | –
101.33 kPa, x2 = 0.9484 | 3.756 | – | – | –
101.33 kPa, x2 = 0.9525 | 3.775 | – | – | –

Nc1ccccc1 + CCCCCCCCCCO
viscosity [mPa·s], 100 kPa
Details | x1 = 0.0718 | x1 = 0.1593 | x1 = 0.2335 | x1 = 0.3471 | x1 = 0.4452 | x1 = 0.5618 | x1 = 0.6428 | x1 = 0.7439 | x1 = 0.8518 | x1 = 0.9439
293.15 K | 12.8 | 11.23 | 10.05 | 8.62 | 7.44 | 6.23 | 5.57 | 4.95 | 4.47 | 4.31
303.15 K | 8.75 | 7.6 | 6.85 | 5.92 | 5.25 | 4.38 | 3.94 | 3.56 | 3.23 | 3.12
313.15 K | 6.16 | 5.4 | 4.9 | 4.28 | 3.84 | 3.3 | 2.97 | 2.7 | 2.5 | 2.44
323.15 K | 4.47 | 4 | 3.65 | 3.21 | 2.89 | 2.51 | 2.28 | 2.1 | 1.95 | 1.91
